Reference: ChEMBL document CHEMBL1201862, “PubChem BioAssay data set” (2004)
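Dose response: 5 concentrations. Exposure: 48 h. Format: 96-well plates. Endpoint: linear interpolation; highest concentration if not reached. GI50 is the concentration that inhibits growth by half.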 The source made the active and inactive calls. Cut-off read from the data, not from the text of the source: active = GI50 up to about 1.1 µM and inactive = higher.

Columns and labels:
Experiment in all cases: NCI anticancer screen, dose series, 48 h
NCI-H226 = system: NCI-H226
U-251 = system: U-251
COLO 205 = system: COLO 205
SF-295 = system: SF-295
OVCAR-5 = system: OVCAR-5
SK-MEL-28 = system: SK-MEL-28
LOX IMVI = system: LOX IMVI
SF-268 = system: SF-268
TK-10 = system: TK-10
SN12C = system: SN12C
A498 = system: A498
CCRF-CEM = system: CCRF-CEM
M14 = system: M14
RPMI-8226 = system: RPMI-8226
SR = system: SR
RXF 393 = system: RXF 393
EKVX = system: EKVX
MCF7 = system: MCF7
MDA-MB-435 = system: MDA-MB-435
MDA-MB-231 = system: MDA-MB-231

| Compound | GI50 (NCI-H226) | GI50 (U-251) | GI50 (COLO 205) | GI50 (SF-295) | GI50 (OVCAR-5) | GI50 (SK-MEL-28) | GI50 (LOX IMVI) | GI50 (SF-268) | GI50 (TK-10) | GI50 (SN12C) | GI50 (A498) | GI50 (CCRF-CEM) | GI50 (M14) | GI50 (RPMI-8226) | GI50 (SR) | GI50 (RXF 393) | GI50 (EKVX) | GI50 (MCF7) | GI50 (MDA-MB-435) | GI50 (MDA-MB-231) |
| --- | --- | --- | --- | --- | --- | --- | --- | --- | --- | --- | --- | --- | --- | --- | --- | --- | --- | --- | --- | --- |
| COC(=O)C(CCS(=O)(=O)CC(=O)C(=O)Nc1cccc(C(C)=O)c1)C(=O)OC | > 100 µM (inactive) | > 89.7 µM (inactive) | > 54.5 µM (inactive) | > 100 µM (inactive) | > 100 µM (inactive) | > 91.4 µM (inactive) | > 61.9 µM (inactive) | 0.586 µM (active) | > 100 µM (inactive) | > 100 µM (inactive) | > 100 µM (inactive) | > 43.1 µM (inactive) | > 100 µM (inactive) | > 47.2 µM (inactive) | 20.9 µM (inactive) | > 100 µM (inactive) | > 100 µM (inactive) |  |  |  |
| CCOC(=O)C1(C/C=C(/C)Cl)CCCC1=O (centres undefined) | > 100 µM (inactive) | > 100 µM (inactive) | > 100 µM (inactive) | > 100 µM (inactive) | > 100 µM (inactive) | > 100 µM (inactive) | > 100 µM (inactive) | > 100 µM (inactive) | > 100 µM (inactive) | > 100 µM (inactive) | > 100 µM (inactive) | > 100 µM (inactive) | > 100 µM (inactive) | 26.9 µM (inactive) | 20.7 µM (inactive) | > 100 µM (inactive) | > 100 µM (inactive) |  |  |  |
| NC1=NN(c2ccccc2)C(=O)C1/C(=N\NC(=O)c1cc2ccccc2cc1O)C(=O)Nc1nc([N+](=O)[O-])cs1 (centres undefined) | 49.1 µM (inactive) | 27.7 µM (inactive) | 23.7 µM (inactive) | 28.9 µM (inactive) | 44.9 µM (inactive) | 42.7 µM (inactive) | 18.4 µM (inactive) | 16.7 µM (inactive) | 38.5 µM (inactive) | 37 µM (inactive) | 41.2 µM (inactive) | 17.3 µM (inactive) | 35.7 µM (inactive) | 9.59 µM (inactive) | 6.78 µM (inactive) | 2.73 µM (inactive) | 47.3 µM (inactive) |  |  |  |
| CC(C)N(C(=O)C12C3C4C5C3C1(C(=O)N(C(C)C)C(C)C)C5C42)C(C)C (centres undefined) | > 100 µM (inactive) | > 100 µM (inactive) | > 44.5 µM (inactive) | > 100 µM (inactive) | > 100 µM (inactive) | > 100 µM (inactive) | > 46.8 µM (inactive) | > 100 µM (inactive) | > 100 µM (inactive) | > 100 µM (inactive) | > 100 µM (inactive) | > 47.1 µM (inactive) | > 100 µM (inactive) | > 44.7 µM (inactive) | 19.1 µM (inactive) | > 100 µM (inactive) | > 100 µM (inactive) |  |  |  |
| CC1=CC(=O)N(n2c(-c3ccccc3)n[nH]c2=O)C1=O | > 100 µM (inactive) | > 100 µM (inactive) | > 100 µM (inactive) | > 100 µM (inactive) | > 100 µM (inactive) | > 100 µM (inactive) | > 100 µM (inactive) | > 100 µM (inactive) | > 100 µM (inactive) | > 100 µM (inactive) |  | 43.9 µM (inactive) | > 100 µM (inactive) | > 100 µM (inactive) |  | > 100 µM (inactive) | > 100 µM (inactive) | > 100 µM (inactive) | > 100 µM (inactive) | > 100 µM (inactive) |
| CC(=O)OC1CC2C(C)(C)C(=O)C=C[C@]2(C)C2CCC3(C)C(c4ccoc4)[C@@H](O)[C@H]4O[C@]43[C@]12C (some centres undefined) | 18.4 µM (inactive) | 14.6 µM (inactive) | 19.8 µM (inactive) | 23.3 µM (inactive) | 25.9 µM (inactive) | 23.7 µM (inactive) | 16.9 µM (inactive) | 24.5 µM (inactive) | 34.2 µM (inactive) | 18.6 µM (inactive) | 29.6 µM (inactive) | 21.6 µM (inactive) | 19.9 µM (inactive) | 18.4 µM (inactive) | 16.1 µM (inactive) | 19.1 µM (inactive) | 30.2 µM (inactive) |  |  |  |
| CC(=O)c1cc2c(s1)C(=O)c1ccsc1C2=O | 1.6 µM (inactive) | 0.233 µM (active) | 19.1 µM (inactive) | 0.16 µM (active) | 0.74 µM (active) | 0.185 µM (active) | 0.0414 µM (active) | 0.301 µM (active) | 1.97 µM (inactive) | 0.182 µM (active) | 7.24 µM (inactive) | 0.335 µM (active) | 0.28 µM (active) | 3.85 µM (inactive) |  | 0.244 µM (active) | 1.87 µM (inactive) | 0.293 µM (active) | 0.0713 µM (active) | 0.327 µM (active) |
| O=C1O/C(=C\c2ccc(O)c(Br)c2)C(c2ccc(O)cc2)=C1Cl |  | 44.8 µM (inactive) | 47.5 µM (inactive) | 40.5 µM (inactive) | 51.3 µM (inactive) | > 100 µM (inactive) | 42.2 µM (inactive) | 27.7 µM (inactive) | 45.6 µM (inactive) |  | 25.3 µM (inactive) | 0.849 µM (active) | 36.1 µM (inactive) | 10.1 µM (inactive) | 35.1 µM (inactive) | 29.9 µM (inactive) | 32.6 µM (inactive) | 19.2 µM (inactive) | 33.3 µM (inactive) |  |
